In US4447608A, “Anti-cancer quinazoline derivatives” (priority 1979, dated 1984):
“Also recorded” adds a separate entry of the source. Where two headings read alike, the source gives them in different places.

What was measured:
L1210 tumour = assay: Treatment of L1210 ascitic tumour-bearing mice, survival; format: in vivo, mice (female C57B1×DBA2 F1 hybrid); conditions: for long term survivors (>120 days): FIG. 3
Description: (§1) The L1210 tumour was carried routinely in DBA2 mice. For experiments 5×10^4 cells were implanted i.p. into female C57B1×DBA2 F1 hybrid mice 3 days prior to treatment, giving an established tumour of about 2×10^6 cells at the time of treatment.
(Animals were injected with 20 mM NaHCO3 buffer 0.4 ml daily×5 days.
As the injection solutions could only be neutralised to pH 8.5 while preserving solubility, the appropriate controls were injected with bicarbonate at pH 8.5. […] For comparative purposes further groups of animals were treated with various doses of methotrexate, given on the same schedule.

L1210 cells [1] = assay: Growth inhibition of L1210 cells in suspension culture, 48 h count; format: cell-based; conditions: Mus musculus
Description: (§2) Cells were diluted to 10^5 /ml and additions (diluted in medium and sterilised in Millipore filtration) made prior to starting each incubation. Cell counts were performed after 24 and 48 hours using an improved Neubauer haemocytometer.

L1210 cells [2] = assay: Reversal of toxicity to L1210 cells in culture by thymidine; format: cell-based, mouse
Description: as §2, with “L1210 and L1210:R71 cells were grown in continuous suspension culture in RPMI 1640 medium containing 10% horse serum (Flow Laboratories, Irvine, Scotland; UK). Cells” for “Cells”

[3] = system: transport of tritiated methotrexate into L1210 cells; assay: Inhibition of transport of tritiated methotrexate into L1210 cells; format: cell-based, mouse
Description: (§3) The compounds of Example 2 were evaluated in vitro as inhibitors as TS and cell growth and in vivo against the L1210 tumour. Since methotrexate (MTX) resistance is an important problem in cancer therapy, the compounds of the present invention were also investigated with this in mind. The cross-resistance of the MTX resistant cell line L1210/R71, which is known to have elevated DHFR but normal MTX transport, was measured in culture, and the ability of the compounds of the invention to compete with labelled MTX or folic acid for transport into L1210 cells was also assessed.
(§4) Transport studies were conducted on compound CB 3717 as representative of the invention compounds by incubating cells in the presence of a labelled substance, removing aliquots, separating and washing the cells by centrifugation and counting the pellet.

[4] = system: transport of tritiated folic acid into L1210 cells; assay: Inhibition of transport of tritiated folic acid into L1210 cells; format: cell-based, mouse
Description: as §3, §4

L1210 cells [5] = assay: Reversal of toxicity to L1210 cells in culture by folinic acid; format: cell-based, mouse; conditions: folinic acid up to 100 μM; FIG. 1: 20 μM CB 3717
Description: as §2, with “L1210 and L1210:R71 cells were grown in continuous suspension culture in RPMI 1640 medium containing 10% horse serum (Flow Laboratories, Irvine, Scotland; UK). Cells” for “Cells”

[6] = Toxicity and body weight change in treated L1210 tumour-bearing mice; format: in vivo, mice (female C57B1×DBA2 F1 hybrid)
Description: as §1

[7] = majority of cell types; cited from earlier work
L1210:R71 cells = assay: Growth inhibition of methotrexate-resistant L1210:R71 cells in suspension culture, 48 h count; format: cell-based, mouse; conditions: relative to L1210
Description: The compounds of Example 2 were evaluated in vitro as inhibitors as TS and cell growth and in vivo against the L1210 tumour. Since methotrexate (MTX) resistance is an important problem in cancer therapy, the compounds of the present invention were also investigated with this in mind.
as §2, with “L1210 and L1210:R71 cells were grown in continuous suspension culture in RPMI 1640 medium containing 10% horse serum (Flow Laboratories, Irvine, Scotland; UK). Cells” for “Cells”

[8] = 8 mg/kg i.p., daily × 5, 5 animals
[9] = 16 mg/kg i.p., daily × 5, 5 animals, first 16 mg/kg line
[10] = 16 mg/kg i.p., daily × 5, 5 animals, second 16 mg/kg line
[11] = 32 mg/kg i.p., daily × 5, 5 animals
[12] = 64 mg/kg i.p., daily × 5, 5 animals
[13] = 80 mg/kg i.p., single dose, 5 animals
[14] = 128 mg/kg i.p., daily × 5, 5 animals
[15] = 160 mg/kg i.p., single dose, 5 animals
[16] = methotrexate 3 mg/kg (optimal dose), daily×5, 10 animals

SMILES: C#CCN(Cc1ccc2nc(N)nc(O)c2c1)c1ccc(C(=O)N[C@@H](CCC(=O)O)C(=O)O)cc1 [CB 3717, N-(4-(N-((2-amino-4-hydroxy-6-quinazolinyl)methyl)prop-2-ynylamino)benzoyl)-L-glutamic acid]
- % Increase in mean survival time (L1210 tumour; [8]): 8%
- Long term survivors (>200 days) (L1210 tumour; [8]): 0
- % Increase in mean survival time (L1210 tumour; [9]): 13%
- Long term survivors (>200 days) (L1210 tumour; [9]): 0
- % Increase in mean survival time (L1210 tumour; [10]): 29%
- Long term survivors (>200 days) (L1210 tumour; [10]): 0
- % Increase in mean survival time (L1210 tumour; [11]): 62%
- Long term survivors (>200 days) (L1210 tumour; [11]): 0
- % Increase in mean survival time (L1210 tumour; [12]): 72%
- Long term survivors (>200 days) (L1210 tumour; [12]): 0
- % Increase in mean survival time (L1210 tumour; [13]): 14%
- Long term survivors (>200 days) (L1210 tumour; [13]): 0
- Long term survivors (>200 days) (L1210 tumour; 125 mg/kg i.p., daily × 5, 10 animals): 9
- % Increase in mean survival time (L1210 tumour; 125 mg/kg i.p., daily × 5, 10 animals, see FIG. 3): > 1200%
- long term survivors (>120 days) (L1210 tumour; 125 mg/kg, 5 daily doses): 9 out of 10
- % Increase in mean survival time (L1210 tumour; [14]): > 1200%
- Long term survivors (>200 days) (L1210 tumour; [14]): 4
- % Increase in mean survival time (L1210 tumour; [15]): 32%
- Long term survivors (>200 days) (L1210 tumour; [15]): 0
- Long term survivors (>200 days) (L1210 tumour; 200 mg/kg i.p., daily × 5, 10 animals): 9
- % Increase in mean survival time (L1210 tumour; 200 mg/kg i.p., daily × 5, 10 animals, see FIG. 3): > 1200%
- long term survivors (>120 days) (L1210 tumour; 200 mg/kg, 5 daily doses): 9 out of 10
- increase in mean survival time with 5 daily dose schedule (L1210 tumour; 5 daily doses, see Table 3): dose related
- difference in survival of CB 3717 and MTX treated animals, p (log rank test) (L1210 tumour; CB 3717 125 and 200 mg/kg vs MTX 3 mg/kg, daily×5): < 0.001
- IC50 (L1210 cells [1]; L1210, 48 h, second results table, read-out: ID50 L1210 (Tissue culture)): 6.5 to 8.5 µM
- IC50 (L1210 cells [1]; L1210, Table 2, 48 hour count reduced to 50% of control, read-out: ID50 L1210): 5 µM
- Reversal by thymidine (in culture) (L1210 cells [2]; second results table, L1210): yes
- reversal of toxicity by co-incubation with thymidine (L1210 cells [2]; thymidine 10 μM, FIG. 1: 20 μM CB 3717): Reversal of the toxicity; also recorded: virtually complete protection
- apparent transport by the pathway used for methotrexate [3]: can apparently be transported by the pathway used for methotrexate
- effect on transport of tritiated methotrexate ([3]; 4 μM MTX, FIG. 2): inhibited; also recorded: dose-dependent reduction
- apparent transport by the pathway for folic acid [4]: also by that for folic acid
- effect on transport of tritiated folic acid ([4]; 4 μM folic acid, FIG. 2): inhibited; also recorded: dose-dependent reduction
- reversal of toxicity by folinic acid (L1210 cells [5]): only partial reversal; also recorded: does not reverse the effect
- body weight change / signs of toxicity ([6]; 5 daily doses, 125 and 200 mg/kg/day, groups of 10 mice, FIG. 4): did not lose a significant amount of weight or show other signs of toxicity
- toxicity of single doses ([6]; single doses up to 160 mg/Kg i.p.): not toxic

SMILES: CN(Cc1cnc2nc(N)nc(N)c2n1)c1ccc(C(=O)N[C@@H](CCC(=O)O)C(=O)O)cc1 [methotrexate, reference compound]
- increase in median lifespan (L1210 tumour; [16]): 71%
- long term survivors (L1210 tumour; [16]): 2/10
- metabolic degradation [7]: does not undergo significant metabolic degradation
- resistance of L1210:R71 to MTX (L1210:R71 cells): about 600 fold
